{
  "source": "PubChem BioAssay (NCI)",
  "test_in_all_cases": "NCI anticancer screen, dose series, 48 h",
  "key": {"786-0 renal": {"test_system": "786-0 renal"}, "A498 renal": {"test_system": "A498 renal"}, "A549 NSCLC": {"test_system": "A549 NSCLC"}, "ACHN renal": {"test_system": "ACHN renal"}, "CAKI-1 renal": {"test_system": "CAKI-1 renal"}, "CCRF-CEM leukemia": {"test_system": "CCRF-CEM leukemia"}, "DLD-1 colon": {"test_system": "DLD-1 colon"}, "DMS 114 small cell lung": {"test_system": "DMS 114 small cell lung"}, "DMS 273 small cell lung": {"test_system": "DMS 273 small cell lung"}, "EKVX NSCLC": {"test_system": "EKVX NSCLC"}, "HCC-2998 colon": {"test_system": "HCC-2998 colon"}, "HCT-116 colon": {"test_system": "HCT-116 colon"}, "HCT-15 colon": {"test_system": "HCT-15 colon"}, "HL-60(TB) leukemia": {"test_system": "HL-60(TB) leukemia"}, "HOP-92 NSCLC": {"test_system": "HOP-92 NSCLC"}, "HT29 colon": {"test_system": "HT29 colon"}, "IGROV1 ovarian": {"test_system": "IGROV1 ovarian"}, "K-562 leukemia": {"test_system": "K-562 leukemia"}, "KM20L2 colon": {"test_system": "KM20L2 colon"}, "LOX IMVI melanoma": {"test_system": "LOX IMVI melanoma"}, "LXFL 529 NSCLC": {"test_system": "LXFL 529 NSCLC"}, "M14 melanoma": {"test_system": "M14 melanoma"}, "M19-MEL melanoma": {"test_system": "M19-MEL melanoma"}, "MALME-3M melanoma": {"test_system": "MALME-3M melanoma"}, "MOLT-4 leukemia": {"test_system": "MOLT-4 leukemia"}, "NCI-H226 lung": {"test_system": "NCI-H226 lung"}, "NCI-H23 lung": {"test_system": "NCI-H23 lung"}, "NCI-H460 lung": {"test_system": "NCI-H460 lung"}, "NCI-H522 lung": {"test_system": "NCI-H522 lung"}, "OVCAR-3 ovarian": {"test_system": "OVCAR-3 ovarian"}, "OVCAR-4 ovarian": {"test_system": "OVCAR-4 ovarian"}, "OVCAR-5 ovarian": {"test_system": "OVCAR-5 ovarian"}, "OVCAR-8 ovarian": {"test_system": "OVCAR-8 ovarian"}, "RPMI-8226 leukemia": {"test_system": "RPMI-8226 leukemia"}, "RXF 393 renal": {"test_system": "RXF 393 renal"}, "RXF-631 renal": {"test_system": "RXF-631 renal"}, "SF-268 CNS": {"test_system": "SF-268 CNS"}, "SF-295 CNS": {"test_system": "SF-295 CNS"}, "SF-539 CNS": {"test_system": "SF-539 CNS"}, "SK-MEL-2 melanoma": {"test_system": "SK-MEL-2 melanoma"}, "SK-MEL-28 melanoma": {"test_system": "SK-MEL-28 melanoma"}, "SK-MEL-5 melanoma": {"test_system": "SK-MEL-5 melanoma"}, "SN12C renal": {"test_system": "SN12C renal"}, "SNB-19 CNS": {"test_system": "SNB-19 CNS"}, "SNB-75 CNS": {"test_system": "SNB-75 CNS"}, "SNB-78 CNS": {"test_system": "SNB-78 CNS"}, "SR leukemia": {"test_system": "SR leukemia"}, "SW-620 colon": {"test_system": "SW-620 colon"}, "TK-10 renal": {"test_system": "TK-10 renal"}, "U251 CNS": {"test_system": "U251 CNS"}, "UACC-257 melanoma": {"test_system": "UACC-257 melanoma"}, "UACC-62 melanoma": {"test_system": "UACC-62 melanoma"}, "UO-31 renal": {"test_system": "UO-31 renal"}, "XF 498 CNS": {"test_system": "XF 498 CNS"}},
  "note": "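48-hour exposure; five concentrations; linearly interpolated endpoints. TGI: total growth inhibition.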",
  "data": [
    {"smiles": "Cc1ccccc1NC(=O)CC1C(=O)Nc2ccccc2S1=O", "note": "(centres undefined)", "values": [
      {"measurement": "TGI", "setting": "786-0 renal", "result": "> 100", "unit": "µM"},
      {"measurement": "TGI", "setting": "A498 renal", "result": "> 100", "unit": "µM"},
      {"measurement": "TGI", "setting": "A549 NSCLC", "result": "> 100", "unit": "µM"},
      {"measurement": "TGI", "setting": "ACHN renal", "result": "> 100", "unit": "µM"},
      {"measurement": "TGI", "setting": "CAKI-1 renal", "result": "> 100", "unit": "µM"},
      {"measurement": "TGI", "setting": "CCRF-CEM leukemia", "result": "> 100", "unit": "µM"},
      {"measurement": "TGI", "setting": "DLD-1 colon", "result": "> 100", "unit": "µM"},
      {"measurement": "TGI", "setting": "DMS 114 small cell lung", "result": "> 100", "unit": "µM"},
      {"measurement": "TGI", "setting": "DMS 273 small cell lung", "result": "> 100", "unit": "µM"},
      {"measurement": "TGI", "setting": "EKVX NSCLC", "result": "> 100", "unit": "µM"},
      {"measurement": "TGI", "setting": "HCC-2998 colon", "result": "> 100", "unit": "µM"},
      {"measurement": "TGI", "setting": "HCT-116 colon", "result": "> 100", "unit": "µM"},
      {"measurement": "TGI", "setting": "HCT-15 colon", "result": "> 100", "unit": "µM"},
      {"measurement": "TGI", "setting": "HL-60(TB) leukemia", "result": "> 100", "unit": "µM"},
      {"measurement": "TGI", "setting": "HOP-92 NSCLC", "result": "> 100", "unit": "µM"},
      {"measurement": "TGI", "setting": "HT29 colon", "result": "> 100", "unit": "µM"},
      {"measurement": "TGI", "setting": "IGROV1 ovarian", "result": "> 100", "unit": "µM"},
      {"measurement": "TGI", "setting": "K-562 leukemia", "result": "> 100", "unit": "µM"},
      {"measurement": "TGI", "setting": "KM20L2 colon", "result": "> 100", "unit": "µM"},
      {"measurement": "TGI", "setting": "LOX IMVI melanoma", "result": "> 100", "unit": "µM"},
      {"measurement": "TGI", "setting": "LXFL 529 NSCLC", "result": "> 100", "unit": "µM"},
      {"measurement": "TGI", "setting": "M14 melanoma", "result": "> 100", "unit": "µM"},
      {"measurement": "TGI", "setting": "M19-MEL melanoma", "result": "> 100", "unit": "µM"},
      {"measurement": "TGI", "setting": "MALME-3M melanoma", "result": "> 100", "unit": "µM"},
      {"measurement": "TGI", "setting": "MOLT-4 leukemia", "result": "> 100", "unit": "µM"},
      {"measurement": "TGI", "setting": "NCI-H226 lung", "result": "> 100", "unit": "µM"},
      {"measurement": "TGI", "setting": "NCI-H23 lung", "result": "> 100", "unit": "µM"},
      {"measurement": "TGI", "setting": "NCI-H460 lung", "result": "> 100", "unit": "µM"},
      {"measurement": "TGI", "setting": "NCI-H522 lung", "result": "> 100", "unit": "µM"},
      {"measurement": "TGI", "setting": "OVCAR-3 ovarian", "result": "> 100", "unit": "µM"},
      {"measurement": "TGI", "setting": "OVCAR-4 ovarian", "result": "> 100", "unit": "µM"},
      {"measurement": "TGI", "setting": "OVCAR-5 ovarian", "result": "> 100", "unit": "µM"},
      {"measurement": "TGI", "setting": "OVCAR-8 ovarian", "result": "> 100", "unit": "µM"},
      {"measurement": "TGI", "setting": "RPMI-8226 leukemia", "result": "> 100", "unit": "µM"},
      {"measurement": "TGI", "setting": "RXF 393 renal", "result": 51.8, "unit": "µM"},
      {"measurement": "TGI", "setting": "RXF-631 renal", "result": "> 100", "unit": "µM"},
      {"measurement": "TGI", "setting": "SF-268 CNS", "result": "> 100", "unit": "µM"},
      {"measurement": "TGI", "setting": "SF-295 CNS", "result": "> 100", "unit": "µM"},
      {"measurement": "TGI", "setting": "SF-539 CNS", "result": 94.3, "unit": "µM"},
      {"measurement": "TGI", "setting": "SK-MEL-2 melanoma", "result": "> 100", "unit": "µM"},
      {"measurement": "TGI", "setting": "SK-MEL-28 melanoma", "result": "> 100", "unit": "µM"},
      {"measurement": "TGI", "setting": "SK-MEL-5 melanoma", "result": "> 100", "unit": "µM"},
      {"measurement": "TGI", "setting": "SN12C renal", "result": "> 100", "unit": "µM"},
      {"measurement": "TGI", "setting": "SNB-19 CNS", "result": "> 100", "unit": "µM"},
      {"measurement": "TGI", "setting": "SNB-75 CNS", "result": 65.9, "unit": "µM"},
      {"measurement": "TGI", "setting": "SNB-78 CNS", "result": "> 100", "unit": "µM"},
      {"measurement": "TGI", "setting": "SR leukemia", "result": "> 100", "unit": "µM"},
      {"measurement": "TGI", "setting": "SW-620 colon", "result": "> 100", "unit": "µM"},
      {"measurement": "TGI", "setting": "TK-10 renal", "result": "> 100", "unit": "µM"},
      {"measurement": "TGI", "setting": "U251 CNS", "result": "> 100", "unit": "µM"},
      {"measurement": "TGI", "setting": "UACC-257 melanoma", "result": "> 100", "unit": "µM"},
      {"measurement": "TGI", "setting": "UACC-62 melanoma", "result": "> 100", "unit": "µM"},
      {"measurement": "TGI", "setting": "UO-31 renal", "result": "> 100", "unit": "µM"},
      {"measurement": "TGI", "setting": "XF 498 CNS", "result": "> 100", "unit": "µM"}
    ]}
  ]
}
